Measurements published in ChEMBL document CHEMBL4311974, “Synthesis of coumarin-sulfonamide derivatives and determination of their cytotoxicity, carbonic anhydrase inhibitory and molecular docking studies” (Eur J Med Chem, 2019).

Key:
[1] = biological target: Carbonic anhydrase 1 (Homo sapiens, UniProt P00915)
Description: Inhibition of human carbonic anhydrase 1 incubated for 10 mins prior to testing measured for 5 to 10 secs by phenol red-based stopped-flow CO2 hydration assay

[2] = system: HT-29; assay: cells; assay type: functional, cell-based; conditions: Homo sapiens, HT-29, 24 h
Description: Cytotoxicity in human HT-29 cells assessed as reduction in cell viability incubated for 24 hrs under hypoxic condition by MTT assay

[3] = system: HEK-293T; assay: cells; assay type: ADME, cell-based; conditions: Homo sapiens, 24 h
Description: Cytotoxicity in HEK293T cells assessed as reduction in cell viability incubated for 24 hrs under hypoxic condition by MTT assay

[4] = biological target: Carbonic anhydrase 9 (Homo sapiens, UniProt Q16790)
Description: Inhibition of human carbonic anhydrase 9 incubated for 10 mins prior to testing measured for 5 to 10 secs by phenol red-based stopped-flow CO2 hydration assay

[5] = biological target: Carbonic anhydrase 12 (Homo sapiens, UniProt O43570)
Sequence of Carbonic anhydrase 12 (O43570 whole entry): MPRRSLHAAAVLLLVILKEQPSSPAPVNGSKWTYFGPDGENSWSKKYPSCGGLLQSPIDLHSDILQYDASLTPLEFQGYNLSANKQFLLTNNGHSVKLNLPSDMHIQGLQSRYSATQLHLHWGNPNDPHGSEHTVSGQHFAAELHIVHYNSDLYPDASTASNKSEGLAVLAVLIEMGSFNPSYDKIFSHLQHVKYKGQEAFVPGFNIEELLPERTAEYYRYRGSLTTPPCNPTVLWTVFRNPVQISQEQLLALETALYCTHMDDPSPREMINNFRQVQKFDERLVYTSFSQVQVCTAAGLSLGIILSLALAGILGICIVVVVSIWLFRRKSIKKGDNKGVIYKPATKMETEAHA
Description: Inhibition of human carbonic anhydrase 12 incubated for 10 mins prior to testing measured for 5 to 10 secs by phenol red-based stopped-flow CO2 hydration assay

[6] = biological target: Carbonic anhydrase 2 (Homo sapiens, UniProt P00918)
Description: Inhibition of human carbonic anhydrase 2 incubated for 10 mins prior to testing measured for 5 to 10 secs by phenol red-based stopped-flow CO2 hydration assay

Sequence of Carbonic anhydrase 1 (P00915 whole entry): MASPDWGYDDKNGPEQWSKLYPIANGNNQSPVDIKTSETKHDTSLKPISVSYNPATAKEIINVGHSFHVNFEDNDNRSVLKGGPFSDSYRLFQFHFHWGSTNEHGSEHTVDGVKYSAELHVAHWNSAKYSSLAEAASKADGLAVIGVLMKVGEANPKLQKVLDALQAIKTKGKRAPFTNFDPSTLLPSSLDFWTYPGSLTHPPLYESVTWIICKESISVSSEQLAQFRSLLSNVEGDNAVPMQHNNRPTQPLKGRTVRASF

SMILES	Ki [1] [µM]	IC50 [2] [µM]	Ki [4] [µM]	Ki [5] [µM]	Ki [6] [µM]	IC50 [3] [µM]
C#CCOc1c(/C=N/Cc2ccc(S(N)(=O)=O)cc2)cccc1OC	> 10	81.3	1.19			135
CCN(CC)c1ccc(C=O)c(OCc2cn(CCCOc3ccc4ccc(=O)oc4c3)nn2)c1	> 10	9.03	0.158	> 10	> 10	19.2
C#CCOc1cccc(/C=N/Cc2ccc(S(N)(=O)=O)cc2)c1	> 10	104	2.03			
C#CCOc1ccc2ccccc2c1/C=N/Cc1ccc(S(N)(=O)=O)cc1	> 10	46.1	1.09			
O=Cc1cccc(OCc2cn(CCCOc3ccc4ccc(=O)oc4c3)nn2)c1	> 10	129	0.192		> 10	
C#CCOc1ccc(Br)cc1/C=N/Cc1ccc(S(N)(=O)=O)cc1	> 10	45.7	0.19			
C#CCOc1ccc(/C=N/Cc2ccc(S(N)(=O)=O)cc2)cc1OC	> 10	136	0.0812			537
C#CCOc1ccc(/C=N/Cc2ccc(S(N)(=O)=O)cc2)cc1	> 10	14.1	0.231			398
C#CCOc1cc(N(CC)CC)ccc1/C=N/Cc1ccc(S(N)(=O)=O)cc1	> 10	62.8	0.198			
C#CCOc1ccccc1/C=N/Cc1ccc(S(N)(=O)=O)cc1	> 10	31	1.07			
C#CCOc1ccc([N+](=O)[O-])cc1/C=N/Cc1ccc(S(N)(=O)=O)cc1	> 10	34.8	0.212			
COc1cccc2c1C(=O)c1c(O)c3c(c(O)c1C2=O)C[C@@](O)(C(=O)CO)C[C@@H]3O[C@H]1C[C@H](N)[C@H](O)[C@H](C)O1 [DOXORUBICIN]		5.38				1.05

Further lines, with some results ahead:

Ki [1] [µM]	IC50 [2] [µM]	Ki [4] [µM]	Ki [5] [µM]	Ki [6] [µM]	SMILES	IC50 [3] [µM]
> 10	125	0.169			NS(=O)(=O)c1ccc(C/N=C/c2ccc(OCc3cn(CCCOc4ccc5ccc(=O)oc5c4)nn3)cc2)cc1	
> 10	65.4	0.133	> 10	> 10	COc1cc(C=O)ccc1OCc1cn(CCCOc2ccc3ccc(=O)oc3c2)nn1	
> 10	13.3	1.17	> 10	> 10	COc1cccc(C=O)c1OCc1cn(CCCOc2ccc3ccc(=O)oc3c2)nn1	30.4
> 10	7.47	0.196	> 10	> 10	O=Cc1cc(Br)ccc1OCc1cn(CCCOc2ccc3ccc(=O)oc3c2)nn1	6.08
> 10	17	0.0455			NS(=O)(=O)c1ccc(C/N=C/c2c(OCc3cn(CCCOc4ccc5ccc(=O)oc5c4)nn3)ccc3ccccc23)cc1	119
> 10	14.3	0.187			NS(=O)(=O)c1ccc(C/N=C/c2ccccc2OCc2cn(CCCOc3ccc4ccc(=O)oc4c3)nn2)cc1	13.9
> 10	18.9	0.128			O=Cc1ccccc1OCc1cn(CCCOc2ccc3ccc(=O)oc3c2)nn1	13.7
> 10	23.3	2.18			CCN(CC)c1ccc(/C=N/Cc2ccc(S(N)(=O)=O)cc2)c(OCc2cn(CCCOc3ccc4ccc(=O)oc4c3)nn2)c1	29.5
> 10	149	0.189	> 10	> 10	O=Cc1c(OCc2cn(CCCOc3ccc4ccc(=O)oc4c3)nn2)ccc2ccccc12	
> 10	53.6	0.137	> 10	> 10	O=Cc1cc([N+](=O)[O-])ccc1OCc1cn(CCCOc2ccc3ccc(=O)oc3c2)nn1	
> 10	100	0.171	> 10	> 10	O=Cc1ccc(OCc2cn(CCCOc3ccc4ccc(=O)oc4c3)nn2)cc1	
> 10	31.6	0.76			COc1cc(/C=N/Cc2ccc(S(N)(=O)=O)cc2)ccc1OCc1cn(CCCOc2ccc3ccc(=O)oc3c2)nn1	
> 10	107	0.955			NS(=O)(=O)c1ccc(C/N=C/c2cccc(OCc3cn(CCCOc4ccc5ccc(=O)oc5c4)nn3)c2)cc1	
> 10	17.7	0.16			NS(=O)(=O)c1ccc(C/N=C/c2cc(Br)ccc2OCc2cn(CCCOc3ccc4ccc(=O)oc4c3)nn2)cc1	8.25
> 10	52.5	1.48			COc1cccc(/C=N/Cc2ccc(S(N)(=O)=O)cc2)c1OCc1cn(CCCOc2ccc3ccc(=O)oc3c2)nn1	
> 10	117	0.857			NS(=O)(=O)c1ccc(C/N=C/c2cc([N+](=O)[O-])ccc2OCc2cn(CCCOc3ccc4ccc(=O)oc4c3)nn2)cc1	
